Measured values: US20120328526A1, “Modulation of Nad+ Activity in Neuropathophysiological Conditions and Uses Thereof” (University of Maryland, Baltimore, priority 2011, published 2012)
Entries after “also recorded” stand apart in the source; their conditions may differ.

Columns and labels:
[1] = Core temperature and blood pressure after nicotinamide mononucleotide administration in post-ischemic animals; assay type: in vivo, mouse
Excerpt: For quantification of uninjured cells within the CA1 sector of the hippocampus an unbiased stereological technique was used (27). […] This is in accord with the degree of hippocampal injury reported in other models of mouse forebrain ischemia. There were no seizure incidents during the first hours of recovery however there was about 10% mortality in the 5 days recovery group. […] To exclude the possibility that the protection was due to hypothermia, the treated animals' core temperature was monitored for 1 h after the nicotinamide mononucleotide administration. The body temperature was stable at 37.5° C. Similarly there was no effect of nicotinamide mononucleotide administration on the animals' blood pressure that was maintained between 80 and 100 mmHg after the compound injection.

tissue NAD(H) levels = assay: Tissue NAD(H) levels in post-ischemic brain regions (enzymatic cycling assay); assay type: in vivo, mouse; conditions: 10 min forebrain ischemia, NMN intraperitoneally at 1 h of reperfusion, measured at 24 h of recovery
Description: FIGS. 3A-3B show the effect of forebrain ischemia and nicotinamide mononucleotide administration on tissue NAD(H) levels. Mice were subjected to 10 min transient forebrain ischemia and allowed to recover for 24 h. After decapitation their brains were removed, the designated regions dissected and frozen in liquid nitrogen. One group of animals received nicotinamide mononucleotide at 1 hour of recovery. The NAD content was determined following perchloric acid extraction and utilized a coupled fluorometric cycling enzymatic assay (FIG. 3A). There is significant loss of NAD^+ in striatum, CA1, and DG regions. *p<0.05. […] Black: sham; white: ischemia; gray: NMN treatment. FIG. 3B: Effect of ischemia on CD38 activity. […] The CD38 enzyme activity was determined using 1-etheno-NAD that, when hydrolyzed by CD38, generates a fluorescent product. The rate of fluorescence increase corresponds to the CD38 enzyme activity. […]
The tissue NAD(H) levels were determined utilizing an enzymatic cycling assay. […] The parietal cortex, striatum, the CA1 sector and CA3-DG regions of the hippocampus were dissected and the tissue NAD(H) levels were determined following perchloric acid extraction. […] Nicotinamide mononucleotide was administrated intraperitoneally at 1 h of reperfusion and the tissue NAD(H) content was determined at 24 h of recovery.

[2] = target: T1, CD38 NAD^+ glycohydrolase (Mus musculus, UniProt P56528); assay: NAD+ glycohydrolase activity (1-etheno-NAD hydrolysis) in brain region homogenates; assay type: biochemical; conditions: NMN 1 mM; post-ischemic brain subregion supernatant
T1 construct: The individual brain regions were homogenized and centrifuged at low speed to sediment the unbroken cells and the nuclear fraction; from tissue; host or cells: mouse (C57BL/6) brain regions (cortex, striatum, hippocampal CA1, CA3-DG), low-speed supernatant of homogenate
T1 sequence (P56528 1-304): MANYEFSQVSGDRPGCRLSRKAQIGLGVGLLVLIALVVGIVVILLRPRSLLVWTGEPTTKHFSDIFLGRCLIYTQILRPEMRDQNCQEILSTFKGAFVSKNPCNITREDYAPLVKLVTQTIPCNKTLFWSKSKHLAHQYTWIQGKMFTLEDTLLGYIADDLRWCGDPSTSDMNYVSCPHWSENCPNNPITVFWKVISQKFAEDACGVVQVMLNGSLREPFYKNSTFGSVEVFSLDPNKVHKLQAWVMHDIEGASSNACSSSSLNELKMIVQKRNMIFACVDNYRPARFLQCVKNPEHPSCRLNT
Description: FIGS. 3A-3B show the effect of forebrain ischemia and nicotinamide mononucleotide administration on tissue NAD(H) levels. Mice were subjected to 10 min transient forebrain ischemia and allowed to recover for 24 h. After decapitation their brains were removed, the designated regions dissected and frozen in liquid nitrogen. One group of animals received nicotinamide mononucleotide at 1 hour of recovery. The NAD content was determined following perchloric acid extraction and utilized a coupled fluorometric cycling enzymatic assay (FIG. 3A). There is significant loss of NAD^+ in striatum, CA1, and DG regions. *p<0.05. […] Black: sham; white: ischemia; gray: NMN treatment. FIG. 3B: Effect of ischemia on CD38 activity. Brains of sham operated animals or animals subjected to 10 min of forebrain ischemia and 24 h of recovery were used for dissection of designated brain regions and homogenized. The CD38 enzyme activity was determined using 1-etheno-NAD that, when hydrolyzed by CD38, generates a fluorescent product. The rate of fluorescence increase corresponds to the CD38 enzyme activity. […]
Since nicotinamide mononucleotide is inhibiting the CD38 NAD^+ glycohydrolase activity, the activity of CD38 in post-ischemic tissue was assessed. The NAD^+ glycohydrolase activity was measured by monitoring the enhancement in fluorescence emission caused by the hydrolysis of 1-etheno-NAD (eNAD) (9). […]

NC(=O)c1ccc[n+]([C@@H]2O[C@H](COP(=O)([O-])O)[C@@H](O)[C@H]2O)c1 [nicotinamide mononucleotide]
effect on animals' blood pressure ([1]; after the compound injection (500 mg/kg)): no effect | body (core) temperature after administration ([1]; monitored for 1 h after NMN administration (500 mg/kg)): 37.5 °C | post-ischemic brain tissue NAD(H) levels (tissue NAD(H) levels): reversed; also recorded: complete recovery of brain tissue NAD(H) levels | post-ischemic brain tissue NAD(H) levels (tissue NAD(H) levels; listed as NMN): prevented the post-ischemic NAD catabolism | eNAD hydrolysis (NAD+ glycohydrolase activity) in brain tissue homogenate [2]: completely inhibited; also recorded: prevents tissue NAD^+ degradation
